pIC50: −log10 of the molar value.
What was measured:
CDK4/CycD1 = CDK4/CycD1 (Homo sapiens, UniProt P11802); test: Kinase activity assay (MSA, EZ Reader) against CDK4
[1] = Preclinical pharmacokinetic study in rats; type: in vivo, Sprague-Dawley (SD) rats; conditions: male SD rats, oral gavage (p.o.) 10 mg/kg, plasma; for AUC(0-t) / Cmax / Tmax: Sprague-Dawley, rat
Summary of the method: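 Male SD rats (6-8 weeks, 200-300 g), fasted overnight, given 10 mg/kg by oral gavage as 1 mg/mL solution in 5% DMSO/10% solutol HS-15/85% saline. Tail-vein plasma sampled up to 24 h, parent drug quantified by LC-MS/MS; parameters from non-compartmental analysis.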

[2] = system: human mantle cell lymphoma cells JEKO-1; test: Cell anti-proliferation assay (MTT), JEKO-1; type: cell-based; conditions: Homo sapiens, 120 h, JEKO-1 cells, incubated for 5 days
Summary of the method: (§1)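 Cells in DMEM with 10% FBS were seeded at 50,000 cells/mL and grown overnight at 37 °C, 5% CO2, then treated at 9 concentrations (3-fold serial dilution, 0.1% DMSO medium). MTT was added for 3 h, formazan dissolved in acidified isopropanol/NP-40, and absorbance read at 570 nm.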

CDK6/CyclinD3 = target: T1, CDK6/CyclinD3 (Homo sapiens, UniProt Q00534); test: Kinase activity assay (MSA, EZ Reader) against CDK6; type: biochemical; conditions: CDK6/CyclinD3 5.00 nM, ATP 350 µM, FL-Peptide34, 10mM MgCl2
T1 construct: purchased Carna 04-107

[3] = system: Human breast cancer cells MCF-7; test: Cell anti-proliferation assay (MTT), MCF-7; type: cell-based; conditions: Homo sapiens, MCF7, 120 h, MCF-7 cells, incubated for 5 days
Summary of the method: as §1

[4] = system: human ovarian cancer cells A2780; test: Cell anti-proliferation assay (MTT), A2780; type: cell-based; conditions: Homo sapiens, 120 h, incubated for 5 days
Summary of the method: as §1

CDK4/CycD1, sequence (P11802 whole entry): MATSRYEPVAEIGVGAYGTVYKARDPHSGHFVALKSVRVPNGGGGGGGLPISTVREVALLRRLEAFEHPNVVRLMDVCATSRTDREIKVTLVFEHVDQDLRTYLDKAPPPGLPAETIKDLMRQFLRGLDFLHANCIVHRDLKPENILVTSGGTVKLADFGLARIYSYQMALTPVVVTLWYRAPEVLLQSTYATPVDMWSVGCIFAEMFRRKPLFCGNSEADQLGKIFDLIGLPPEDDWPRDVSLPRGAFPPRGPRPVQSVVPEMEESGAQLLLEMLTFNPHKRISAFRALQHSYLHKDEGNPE
T1 sequence (Q00534 whole entry): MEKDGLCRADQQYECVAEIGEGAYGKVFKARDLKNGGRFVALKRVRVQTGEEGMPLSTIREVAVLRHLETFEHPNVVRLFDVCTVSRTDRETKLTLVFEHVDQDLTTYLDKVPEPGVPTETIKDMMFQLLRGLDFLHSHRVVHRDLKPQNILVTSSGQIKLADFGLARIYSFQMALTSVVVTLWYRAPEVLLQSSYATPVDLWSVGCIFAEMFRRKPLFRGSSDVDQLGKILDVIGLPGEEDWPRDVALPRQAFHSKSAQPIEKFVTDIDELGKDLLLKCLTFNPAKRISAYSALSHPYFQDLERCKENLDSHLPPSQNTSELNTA
T1 sequence (P30281 whole entry partner): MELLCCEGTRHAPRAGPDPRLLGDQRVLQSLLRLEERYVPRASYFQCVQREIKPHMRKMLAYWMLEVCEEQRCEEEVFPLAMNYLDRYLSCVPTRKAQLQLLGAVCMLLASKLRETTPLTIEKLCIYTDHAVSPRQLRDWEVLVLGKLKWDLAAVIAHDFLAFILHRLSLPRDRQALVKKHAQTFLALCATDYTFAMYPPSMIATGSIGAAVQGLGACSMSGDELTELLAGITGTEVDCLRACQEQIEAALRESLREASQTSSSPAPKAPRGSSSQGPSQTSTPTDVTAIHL

Row | SMILES | pIC50 (CDK4/CycD1) | AUC(0-t) [1] [ng·h/mL] | Cmax [1] [ng/mL] | Tmax [1] [h] | HL_ [1] [h] | pIC50 [2] | pIC50 (CDK6/CyclinD3) | pIC50 [3] | pIC50 [4]
1 | C[C@H]1CCN(C)c2nc3c(F)cc(-c4cc(N[C@@H]5CCOC[C@H]5O)ncc4Cl)cc3n21 [TB-149] | 8.28 | 25400 | 4160 | 1.17 | 1.99 | ≥ 6.30 | 7.04 | ≥ 6.30 | ≥ 6.30
2 | C[C@H]1CCN(CC#N)c2nc3c(F)cc(-c4nc(N[C@@H]5CCOC[C@H]5O)ncc4Cl)cc3n21 [TC-2] | 8.35 | 1240 | 400 | 0.67 | 2.87 | ≥ 6.30 | 7.12 | 5.70 to 6.30 | ≥ 6.30
3 | C[C@H]1CCN(C2CC2)c2nc3c(F)cc(-c4nc(N[C@@H]5CCOC[C@H]5O)ncc4Cl)cc3n21 [TA-4] | 8.36 | 16200 | 4430 | 1 | 3.19 | ≥ 6.30 | 7.19 | ≥ 6.30 | ≥ 6.30

— patent EP4775575A1, “COMPOUND USED AS CDK4 KINASE INHIBITOR AND USE THEREOF” (TYK Medicines, Inc., priority 2023, dated 2025)
